Experimental findings from article PMC7277225, “Structures of FOX-4 Cephamycinase in Complex with Transition-State Analog Inhibitors” (Biomolecules, 2020) are described below.

Test [1] deals with T1, FOX-4 cephamycinase (class C β-lactamase) (Escherichia coli, UniProt Q9L387).
T1 construct: native FOX-4, purified from periplasmic fractions of E. coli
Description: biochemical. Conditions: read-out: FOX-4 ^1 IC50.

Test [2] deals with T1, FOX-4 cephamycinase (class C β-lactamase). Description: steady-state kinetics, nitrocefin hydrolysis, […] min pre-incubation. To be noted: read-out: FOX-4 ^1 IC50. The class given is biochemical.
For test [3] the target is unchanged. Description: X-ray crystal structure (soak, […] Å); IC50 with purified enzyme by nitrocefin hydrolysis. Format: biochemical.

On to `O=C(Cc1cccs1)N[C@H](B(O)O)c1cccc(C(=O)O)c1` [SM23], for which the 50% inhibitory concentration (IC50) in test [1] stood at 32 ± 3 nM. `O=C(Cc1cccs1)N[C@@H](Cc1cccc(C(=O)O)c1)B(O)O` [EC04]: in test [2], the 50% inhibitory concentration (IC50) was 420 ± 20 nM. In the case of `CO/N=C(\C(=O)NCB(O)O)c1csc(N)n1` [CTX-like], the IC50 in test [2] was determined as 260 ± 20 nM. As to `CC(C)(O/N=C(\C(=O)NCB(O)O)c1csc(N)n1)C(=O)O` [LP06], the IC50 in test [3] came out at 110 ± 20 nM.

A word on the IC50: it is the point on the concentration scale where inhibition reaches its midpoint.
